# Results from patent US8324202B2, “5-phenyl-1H-benzo [E] [1,4] diazepine compounds substituted with an hydroxamic acid group as histone deacetylase inhibitors” (Universita Degli Studi di Firenze, priority 2007, dated 2012).
# pIC50: −log10 of the molar value. Several values for one entry are separate records, joined by “and”; a condition that tells them apart may be missing. Equal entries are not always repeated. Where two headings read alike, the source gives them in different places.
# Key:
# Type in all cases: cell-based, human
# acetylated H3 histone = assay: Histone deacetylase inhibition: western blot for acetylated histone H3 in cells incubated 6 hours with drug; details: for Acetyl-H3 densitometric value: 6 hours, untreated = 1; for HDAC inhibitory / acetylating activity, in words (histone not specified) / H3 histone acetylating activity, in words: summary in description
# Procedure: (§1) The new described compounds were tested for their ability to inhibit the histone deacetylase activity by western blot for the acetylated isoforms of histone H3 and H4 and also to induce growth arrest in cancer cells by activating apoptosis and/or cell differentiation. Initially, biological activities of newly synthesized HDACi were assessed by using the human acute promyelocytic leukemia cell line NB4, as the experimental model. Cells were maintained in RPMI (Bio-Whittaker Europe, Verviers, Belgio) supplemented with 10% of fetal calf serum (FCS, Boehringer Mannheim, Germania) and 2 mM glutamine (Merck, Darmstadt, Germania) at 37° C. in a humidified atmosphere of 5% CO2. Cells were counted in a Burker chamber and cells viability was assessed by the trypan blu exclusion test.
# (§2) Cells, obtained as described above, were harvested in sterile plates (Falcon, Becton Dickinson, Franklin Lakes, N.J.) at density of 6×10^5/mL, and incubated for 6 hours with increasing drug concentration of single compounds. Then, the cells were lysated with RIPA buffer (50 mM Tris-HCl pH 7.4, 150 mM NaCl, 1% Nonidet P-40, 1 mM EDTA plus protease inhibitor cocktail (Protease Inhibitor Cocktail Set III, n° cat. 539134, Calbiochem, Merck, Darmstadt, Germany) and sonicated (Labsonic 1510) twice for 15s pulses at 1-2 Watts in ice. Protein concentration of cell extracts was determined according to the bicinchoninic acid colorimetric method (BCA, Pierce, Rockford, USA) by using serum bovine albumin as the standard (BSA, Sigma, Steinheim, Germania). Equal amounts of protein (20-40 μg/20-30 μL/well) were separated on NuPAGE Bis-Tris 12% gel (Novex, Invitrogen, Carlsbad, Calif.) 10% and transferred to nitrocellulose membranes (Pro-Bind, pore diameter=0.45 μm; Amersham Pharmacia). Then membranes, incubated in phosphate buffer saline (PBS) with 6% defatted dry milk as blocking solution to saturate unspecific binding sites, were probed overnight at 4° C. with primary antibodies (1;1000 dilution in PBS) raised against acetylated H4 a H3 histone isoforms (Upstate Technologies, Lake Placid, N.Y., USA). […] The experiment was performed with the compound (II) S form, where R1 and R2 can be independently a methyl group or hydrogen.
# acetylated H4 histone = assay: Histone deacetylase inhibition: western blot for acetylated histone H4 in cells incubated 6 hours with drug; details: for Acetyl-H4 densitometric value: 6 hours, untreated = 0; for H4 histone acetylating activity, in words: summary in description
# Procedure: as §1, §2
# NB4 cells [1] = assay: Cytostatic and apoptotic activity, Annexin-V-FLUOS/propidium iodide flow cytometry, 48 hours; details: for pIC50: 48 hours, graphic extrapolation of Annexin-V results, viable cells over control, read-out: IC50 (drug concentration reducing cell density or viability by 50%); for apoptotic activity, in words: leukemic cells, summary in description
# Procedure: as §1
# Cells, were initially harvested at 4×10^5/mL (3 mL/well) cell density 24 well plate and incubated for 48 hours with increasing drug concentration. All compounds were solubilized in DMSO so that the final concentration of vehicle in culture was lower than 0.1%. At the end of treatment cell viability and apoptosis were evaluated by cytofluorimetric analysis using Anexin-V-Fluos staining (Annexin-V-FLUOS Staining Kit, Roche Molecular Biochemicals, Mannheim, Germany).
# Necrotic cells, which are also Annexin-V positive, were identified by using Propidium iodide fluorochrome, that is capable of penetrating cell membranes of dying or dead cells and binding DNA.
# Briefly, aliquots of cell suspensions (approximately 10^5 cells) washed in buffer PBS, were resuspended in 5 μl of binding buffer containing annexin V-fluorescein isothiocyanate (FITC) and propidium iodide; incubation was carried out for 15 minutes at room temperature, and cells were then analyzed by flow cytometry (FACScan Becton-Dickinson, San Jose, Calif.).
# The IC50 values (i.e. the drug concentration necessary to reduce cell density or viability by 50% as compared to untreated control cultures) obtained by graphic extrapolation of the Anexin-V results and expressed as percentage of viable cells over control were reported In Table 2.
# Data represent the percentage of viable cells as the function of drug concentration.
# NB4 cells [2] = assay: Granulocytic differentiation, NBT reduction assay, alone or with ATRA; details: for % of NBT+ cells: three days; for effect on granulocytic differentiation / NBT positive cells, in words: alone or in combination with 20 nM ATRA
# Procedure: The analysis of functional myeloid differentiation induced by compounds of the invention was accomplished by Nitro-Blu tetrazolium (NBT) reduction assay as described below. Cell suspension (approximately 10^5/mL) were incubated in the presence of 0.25 mg/mL NBT and 500 ng of PMA (Phorbol-12-Myristate 13-acetate) (Sigma) at 37° C. for 30 minutes. Granulocyte or monocyte differentiated cell were capable of reducing NBT to dark formazan precipitate (blu positive cells). NBT positive cells were counted on Burker chamber and expressed as percentage of total cell population.
# (§3) • Compounds (II) in racemic form and enantiomers S or R. • Compounds (III) in racemic form and enantiomers S or R. • Compounds (II) with R1 and R2=hydrogen were tested for their capability to synergize with ATRA and for their ability to induce granulocyte differentiation in the human promyelocytic cell line NB4. ATRA at the final concentration of 1 μM is usually employed to induce granulocyte differentiation in NB4 cells.
# (§4) NB4 cells were incubated for three days in presence of the compounds listed above, alone or in combination with ATRA. Granulocyte differentiation of leukemic cells was determined by (a) Nitro-Blu tetrazolium (NBT) reduction to dark formazan precipitate (blu positive cells) counting NBT positive cells on Burker chamber and (b) cytofluorimetric analysis of CD11b membrane expression (granulocyte marker, see example 32).
# NB4 cells [3] = assay: Granulocytic differentiation, cytofluorimetric analysis of CD11b membrane expression, alone or with ATRA; details: for % of CD11b+ cells: three days
# Procedure: Identification of markers of myeloid maturation was determined by flow cytometry by labelling cells with PE-conjugated antibody and FITC-conjugated antibody to CD11b (granulocyte marker) and CD14 (monocyte marker) respectively (Becton-Dickinson). Cell suspension aliquots (1×10^5 cells) were washed with cell wash buffer (Becton-Dickinson) and incubated with antibodies for 30 minutes in ice. After the incubation cells, resuspended in 0.3 mL of buffer containing Actinomycin D (Becton-Dickinson) to evaluate cell viability, were submitted to the cytofluorimetric analysis (FACScan, Becton-Dickinson). Cells incubated with appropriately labeled isotype controls were used to gate nonspecific fluorescence signal.
# as §3, §4
structure (smiles),measurement,setting,value
"CC1N=C(c2ccccc2)c2cc(C#CCCCC(=O)NO)ccc2N(C)C1=O (racemic) [Compound (II) racemic with R1 or R2 = Me, N-hydroxy-6-(1,3-dimethyl-2-oxo-5-phenyl-2,3-dihydro-1H-benzo[e][1,4]diazepin-7-yl)-5-hexynamide]",Acetyl-H3 densitometric value,acetylated H3 histone; 1 μM,3.73 arbitrary units
same,Acetyl-H3 densitometric value,acetylated H3 histone; 2 μM,4.61 arbitrary units
same,Acetyl-H3 densitometric value,acetylated H3 histone; 5 μM,5.19 arbitrary units
same,Acetyl-H4 densitometric value,acetylated H4 histone; 1 μM,1.67 arbitrary units
same,Acetyl-H4 densitometric value,acetylated H4 histone; 2 μM,5.92 arbitrary units
same,Acetyl-H4 densitometric value,acetylated H4 histone; 5 μM,16.29 arbitrary units
same,pIC50,"NB4 cells [1]; Homo sapiens, NB-4",5.47
same,"apoptotic activity, in words",NB4 cells [1],good ability to induce apoptosis
same,"increase of NBT positive cells, combination versus each agent alone",NB4 cells [2]; 3 μM compound + 20 nM ATRA,up to 50 fold
same,% of NBT+ cells,NB4 cells [2]; 3 μM compound + 20 nM ATRA,72%
same,% of NBT+ cells,NB4 cells [2]; 3 μM compound alone,≦1%
same,% of CD11b+ cells,NB4 cells [3]; 3 μM compound + 20 nM ATRA,81.7%
same,% of CD11b+ cells,NB4 cells [3]; 3 μM compound alone,31.2%
"CC1N=C(c2ccccc2)c2cc(NC(=O)CCCCCCC(=O)NO)ccc2N(C)C1=O (racemic) [Compound (III) racemic with R1 or R2 = Me, N1-hydroxy-N8-(1,3-dimethyl-2-oxo-5-phenyl-2,3-dihydro-1H-1,4-benzo[e][1,4]diazepin-7-yl)octanediamide]",Acetyl-H3 densitometric value,acetylated H3 histone; 2 μM,4.04 arbitrary units
same,Acetyl-H3 densitometric value,acetylated H3 histone; 4 μM,4.92 arbitrary units
same,Acetyl-H3 densitometric value,acetylated H3 histone; 10 μM,5.42 arbitrary units
same,"HDAC inhibitory / acetylating activity, in words (histone not specified)",acetylated H3 histone,good inhibitory activity
same,Acetyl-H4 densitometric value,acetylated H4 histone; 2 μM,12.96 arbitrary units
same,Acetyl-H4 densitometric value,acetylated H4 histone; 4 μM,23.7 arbitrary units
same,Acetyl-H4 densitometric value,acetylated H4 histone; 10 μM,28.15 arbitrary units
same,pIC50,NB4 cells [1],5.40
"CN1C(=O)C(NC(=O)CCCCCCC(=O)NO)N=C(c2ccccc2)c2ccccc21 (racemic) [Compound (IV) racemic, N1-hydroxy-N8-(1-methyl-2-oxo-5-phenyl-2,3-dihydro-1H-benzo[e][1,4]diazepin-3-yl)octanediamide]",Acetyl-H3 densitometric value,acetylated H3 histone; 0.5 μM,2.67 arbitrary units
same,Acetyl-H3 densitometric value,acetylated H3 histone; 1 μM,3.17 arbitrary units
same,Acetyl-H3 densitometric value,acetylated H3 histone; 2.5 μM,3.38 arbitrary units
same,"H3 histone acetylating activity, in words",acetylated H3 histone,reasonably good activity toward H3 histone
same,Acetyl-H4 densitometric value,acetylated H4 histone; 0.5 μM,1 arbitrary units
same,Acetyl-H4 densitometric value,acetylated H4 histone; 1 μM,5.78 arbitrary units
same,Acetyl-H4 densitometric value,acetylated H4 histone; 2.5 μM,10.89 arbitrary units
same,"H4 histone acetylating activity, in words",acetylated H4 histone,good acetylating activity of H4 histone
same,pIC50,"NB4 cells [1]; Homo sapiens, NB-4",6.24
"CC1=C(/C=C/C(C)=C/C=C/C(C)=C/C(=O)O)C(C)(C)CCC1 [ATRA, all-trans-retinoc acid, reference compound]",% of NBT+ cells,NB4 cells [2]; 20 nM ATRA alone,12% and 15%
same,% of NBT+ cells,NB4 cells [2]; 1 μM ATRA alone,78% and 80%
same,% of CD11b+ cells,NB4 cells [3]; 20 nM ATRA alone,13% and 10%
same,% of CD11b+ cells,NB4 cells [3]; 1 μM ATRA alone,80% and 71.3% and 72%
"C[C@H]1N=C(c2ccccc2)c2cc(C#CCCCC(=O)NO)ccc2N(C)C1=O [Compound (II) R form with R1 or R2 = Me, (R)-6-(1,3-dimethyl-2-oxo-5-phenyl-2,3-dihydro-1H-benzo[e][1,4]diazepin-7-yl)-N-hydroxyhex-5-ynamide]",Acetyl-H3 densitometric value,acetylated H3 histone; 0.5 μM,2.5 arbitrary units
same,Acetyl-H3 densitometric value,acetylated H3 histone; 1 μM,2.54 arbitrary units
same,Acetyl-H3 densitometric value,acetylated H3 histone; 2.5 μM,3.69 arbitrary units
same,"H3 histone acetylating activity, in words",acetylated H3 histone,good activity toward H3 histone
same,Acetyl-H4 densitometric value,acetylated H4 histone; 0.5 μM,0 arbitrary units
same,Acetyl-H4 densitometric value,acetylated H4 histone; 1 μM,0 arbitrary units
same,Acetyl-H4 densitometric value,acetylated H4 histone; 2.5 μM,0 arbitrary units
same,"H4 histone acetylating activity, in words",acetylated H4 histone,does not show hyperacetylating activity on H4 histones
same,% of NBT+ cells,NB4 cells [2]; 1.5 μM compound + 20 nM ATRA,13.1%
same,% of NBT+ cells,NB4 cells [2]; 1.5 μM compound alone,≦1%
same,"effect on granulocytic differentiation / NBT positive cells, in words",NB4 cells [2],no appreciable effect on granulocytic differentiation
same,% of CD11b+ cells,NB4 cells [3]; 1.5 μM compound + 20 nM ATRA,19.8%
same,% of CD11b+ cells,NB4 cells [3]; 1.5 μM compound alone,14.2%
"CN1C(=O)CN=C(c2ccccc2)c2cc(NC(=O)CCCCCCC(=O)NO)ccc21 [Compound (III) R1 and R2 = hydrogen, N1-(1-methyl-2-oxo-5-phenyl-2,3-dihydro-1H-benzo[e][1,4]diazepin-7-yl)-N8-hydroxyoctanediamide]",Acetyl-H3 densitometric value,acetylated H3 histone; 1 μM,2.84 arbitrary units
same,Acetyl-H3 densitometric value,acetylated H3 histone; 2 μM,3.23 arbitrary units
same,"HDAC inhibitory / acetylating activity, in words (histone not specified)",acetylated H3 histone,good acetylating and apoptotic activities
same,Acetyl-H4 densitometric value,acetylated H4 histone; 1 μM,2.39 arbitrary units
same,Acetyl-H4 densitometric value,acetylated H4 histone; 2 μM,6.63 arbitrary units
same,pIC50,"NB4 cells [1]; Homo sapiens, NB-4",5.52
same,"apoptotic activity, in words",NB4 cells [1],good acetylating and apoptotic activities
"C[C@@H]1N=C(c2ccccc2)c2cc(NC(=O)CCCCCCC(=O)NO)ccc2N(C)C1=O [Compound (III) S form with R1 or R2 = Me, (S)—N-1-(1,3-dimethyl-2-oxo-5-phenyl-2,3-dihydro-1H-benzo[e][1,4]diazepin-7-yl)-N8-hydroxyoctanediamide]",Acetyl-H3 densitometric value,acetylated H3 histone; 1 μM,2.73 arbitrary units
same,Acetyl-H3 densitometric value,acetylated H3 histone; 2 μM,2.65 arbitrary units
same,Acetyl-H3 densitometric value,acetylated H3 histone; 5 μM,3.61 arbitrary units
same,"HDAC inhibitory / acetylating activity, in words (histone not specified)",acetylated H3 histone,good inhibitory activity
same,Acetyl-H4 densitometric value,acetylated H4 histone; 1 μM,3 arbitrary units
same,Acetyl-H4 densitometric value,acetylated H4 histone; 2 μM,4.81 arbitrary units
same,Acetyl-H4 densitometric value,acetylated H4 histone; 5 μM,12.59 arbitrary units
same,% of NBT+ cells,NB4 cells [2]; 3 μM compound + 20 nM ATRA,40%
same,% of NBT+ cells,NB4 cells [2]; 3 μM compound alone,3%
same,"effect on granulocytic differentiation / NBT positive cells, in words",NB4 cells [2],strong synergistic increase of NBT positive cells
same,% of CD11b+ cells,NB4 cells [3]; 3 μM compound + 20 nM ATRA,7.4%
same,% of CD11b+ cells,NB4 cells [3]; 3 μM compound alone,26%
same,"effect on CD11b positive cells, in words",NB4 cells [3]; alone or in combination with 20 nM ATRA,no increase in CD11b positive cells
